Experimental data reported in patent publication US7964624B1, “Inhibitors of serine proteases” (priority 2005, dated 2011).
pKi: −log10 of the molar value.

Tests used:
HCV NS3 protease domain = target: T1, HCV NS3 protease domain (Hepatitis C virus genotype 1b, UniProt Q9WMX2); test: biochemical; settings: Enzyme Assay 1 (HCV NS3 Protease Domain Peptide Cleavage Assay) activity, apparent Ki class
T1 construct: The first 181 amino acids of NS3 (residues 1027-1207 of the viral polyprotein); hexa-histidine (C); made in house; host or cells: E. coli BL21/DE3 pLysS

[1] = target: T2, full-length hepatitis C viral protein NS3•4A (Hepatitis C virus genotype 1a, UniProt P27958); test: biochemical; design: species or system HCV sub-type strain 1a; settings: Enzyme Assay 2 (HCV NS3 Peptide Cleavage Assay) activity, apparent Ki class
T2 construct: hexa-histidine (N); made in house; host or cells: Sf9 insect cells (baculovirus, pVL1392)

Row | SMILES | pKi (HCV NS3 protease domain) | pKi [1]
1 | CCC[C@H](NC(=O)[C@@H]1C[C@]2(CC(c3cccc(Cl)c3)=NO2)CN1C(=O)[C@@H](NC(=O)CC1CCCCC1)C(C)(C)C)C(=O)C(=O)NC1CCCC1 [Compound 372] | 6.30 to 7.00 | 6.30 to 7.00
2 | CCC[C@H](NC(=O)[C@@H]1C[C@]2(CC(c3cccc(Cl)c3)=NO2)CN1C(=O)[C@@H](NS(=O)(=O)c1ccc(OC)cc1)C(C)C)C(=O)C(=O)NC1CC1 [Compound 489] | < 6.30 | 6.30 to 7.00
3 | CCC[C@H](NC(=O)[C@@H]1C[C@]2(CC(c3cc(Cl)c4c(c3)CCO4)=NO2)CN1C(=O)[C@@H](NC(=O)CC1CCCCC1)C(C)(C)C)C(=O)C(=O)NC1CC1 [Compound 499] | > 7.00 | > 7.00
4 | CCC[C@H](NC(=O)[C@@H]1C[C@]2(CC(c3cccc(Cl)c3)=NO2)CN1C(=O)[C@@H](NC(=O)CC1CCCCC1)C(C)(C)C)C(=O)C(=O)NCc1ccncc1 [Compound 461] | < 6.30 | 6.30 to 7.00
5 | CCC[C@H](NC(=O)[C@@H]1C[C@]2(CC(c3cccc(Cl)c3)=NO2)CN1C(=O)[C@@H](NC(=O)CC1CCCCC1)C(C)(C)C)C(=O)C(=O)NC1CCC1 [Compound 401] | 6.30 to 7.00 | 6.30 to 7.00
6 | CCC[C@H](NC(=O)[C@@H]1C[C@]2(CC(c3cccc(Cl)c3)=NO2)CN1C(=O)CN1C(=O)OC[C@@H]1c1ccccc1)C(=O)C(=O)NC1CC1 [Compound 397] | < 6.30 | < 6.30
7 | CCC[C@H](NC(=O)[C@@H]1C[C@]2(CC(c3cccc(Cl)c3)=NO2)CN1C(=O)[C@@H](NC(=O)CC1CCCCC1)C(C)(C)C)C(=O)C(=O)N1CC[C@@H](NC(C)=O)C1 [Compound 186] | < 6.30 | < 6.30
8 | CNC(=O)C(=O)C(CC1CCC1)NC(=O)[C@@H]1C[C@]2(CC(c3cccc(Cl)c3)=NO2)CN1C(=O)[C@@H](NC(=O)CC1CCOC(C)(C)C1)C(C)(C)C (stereo partly drawn) [Compound 419] | 6.30 to 7.00 | 6.30 to 7.00
9 | CCCC[C@H](NC(=O)CC1CCCCC1)C(=O)N1C[C@@]2(CC(c3cccc(Cl)c3)=NO2)C[C@H]1C(=O)N[C@@H](CCC)C(=O)C(=O)NC1CC1 [Compound 459] | < 6.30 | 6.30 to 7.00
10 | CCC[C@H](NC(=O)[C@@H]1C[C@]2(CC(c3cc(Cl)c4c(c3)CCCN4C)=NO2)CN1C(=O)[C@@H](NC(=O)CC1CCCCC1)C(C)(C)C)C(=O)C(=O)NC1CC1 [Compound 430] | 6.30 to 7.00 | > 7.00
11 | CC(C)(C)[C@H](NC(=O)CC1CCCCC1)C(=O)N1C[C@@]2(CC(c3cccc(Cl)c3)=NO2)C[C@H]1C(=O)N[C@@H](CC1CCC1)C(=O)C(=O)NC1CC1 [Compound 23] | > 7.00 | 6.30 to 7.00
12 | CCC[C@H](NC(=O)[C@@H]1C[C@]2(CC(c3cccc(Cl)c3)=NO2)CN1C(=O)[C@@H](NC(=O)CC1CCC(C)CC1)C(C)(C)C)C(=O)C(=O)NC1CC1 (stereo partly drawn) [Compound 361] | 6.30 to 7.00 | > 7.00
13 | C#CC[C@H](C(=O)N[C@H](C(=O)N1C[C@@]2(CC(c3cccc(Cl)c3)=NO2)C[C@H]1C(=O)N[C@@H](CCC)C(=O)C(=O)NC1CC1)C(C)(C)C)C1CCCCC1 [Compound 266] | 6.30 to 7.00 | 6.30 to 7.00
14 | CCC[C@H](NC(=O)[C@@H]1C[C@]2(CC(c3cccc(Cl)c3)=NO2)CN1C(=O)[C@@H](NC(=O)CC1CCCCC1)C(C)(C)C)C(=O)C(=O)N(C)C [Compound 253] | < 6.30 | < 6.30
15 | CCC[C@H](NC(=O)[C@@H]1C[C@]2(CC(c3cccc(Cl)c3)=NO2)CN1C(=O)[C@@H](NC(=O)CC1CCCCC1)C(C)(C)C)C(=O)C(=O)NCCC(=O)Nc1cc(OC)c2ccccc2c1 [Compound 206] | 6.30 to 7.00 | 6.30 to 7.00
16 | CCC[C@H](NC(=O)[C@@H]1C[C@]2(CC(c3cccc(Cl)c3)=NO2)CN1C(=O)[C@@H](NS(=O)(=O)c1ccc(Cl)cc1)C(C)CC)C(=O)C(=O)NC1CC1 (stereo partly drawn) [Compound 416] | < 6.30 | 6.30 to 7.00
17 | CCC[C@H](NC(=O)[C@@H]1C[C@]2(CC(c3cc(F)c(OCC)c(Cl)c3)=NO2)CN1C(=O)[C@@H](NC(=O)CC1CCOCC1)C(C)(C)C)C(=O)C(=O)NC1CC1 [Compound 411] | 6.30 to 7.00 | > 7.00
18 | CCC[C@H](NC(=O)[C@@H]1C[C@]2(CC(c3cccc(Cl)c3)=NO2)CN1C(=O)C1CCN(c2ccccc2)C1=O)C(=O)C(=O)NC1CC1 (stereo partly drawn) [Compound 65] | < 6.30 | < 6.30
19 | CCC[C@H](NC(=O)[C@@H]1C[C@]2(CC(c3cccc(Cl)c3)=NO2)CN1C(=O)[C@@H](NC(=O)CC1CCCCC1)C(C)(C)C)C(=O)C(=O)N1CC(OCC)C1 [Compound 133] | 6.30 to 7.00 | 6.30 to 7.00
20 | CCC[C@H](NC(=O)[C@@H]1C[C@]2(CC(c3cccc(Cl)c3)=NO2)CN1C(=O)[C@H](Cc1ccc(OC)cc1)NC(=O)CC1CCCCC1)C(=O)C(=O)NC1CC1 [Compound 213] | < 6.30 | < 6.30
21 | CCC[C@H](NC(=O)[C@@H]1C[C@]2(CC(c3cccc(Cl)c3)=NO2)CN1C(=O)[C@@H](NC(=O)C1CCCCC1)C(C)(C)C)C(=O)C(=O)NC1CC1 [Compound 93] | 6.30 to 7.00 | > 7.00

Row | SMILES | pKi (HCV NS3 protease domain) | pKi [1]
22 | CCC[C@H](NC(=O)[C@@H]1C[C@]2(CC(c3cccc(Cl)c3)=NO2)CN1C(=O)C1=CC(c2cc(OC)ccc2OC)NC(=O)N1)C(=O)C(=O)NC1CC1 (stereo partly drawn) [Compound 586] | < 6.30 | < 6.30
23 | CCC[C@H](NC(=O)[C@@H]1C[C@]2(CC(c3cncc(Cl)c3)=NO2)CN1C(=O)[C@@H](NC(=O)CC1CCCCC1)C(C)(C)C)C(=O)C(=O)NC1CC1 [Compound 292] | 6.30 to 7.00 | > 7.00
24 | CC1(O)CCC(CC(=O)N[C@H](C(=O)N2C[C@@]3(CC(c4cccc(Cl)c4)=NO3)C[C@H]2C(=O)N[C@@H](CC2CC2)C(=O)C(N)=O)C(C)(C)C)CC1 (stereo partly drawn) [Compound 5] | > 7.00 | > 7.00
25 | CCC[C@H](NC(=O)[C@@H]1C[C@]2(CC(c3cccc(Cl)c3)=NO2)CN1C(=O)[C@@H](NC(=O)CC1CCCCC1)C(C)(C)C)C(=O)C(=O)Nc1ccc(F)c(F)c1 [Compound 573] | < 6.30 | < 6.30
26 | CCC[C@H](NC(=O)[C@@H]1C[C@]2(CC(c3cccc(Cl)c3)=NO2)CN1C(=O)[C@H](CSC(C)(C)C)NC(=O)CC1CCCCC1)C(=O)C(=O)NC1CC1 [Compound 437] | < 6.30 | < 6.30
27 | CCC[C@H](NC(=O)[C@@H]1C[C@]2(CC(c3cccc(Cl)c3)=NO2)CN1C(=O)C(C)N1Cc2ccccc2C1=O)C(=O)C(=O)NC1CC1 (stereo partly drawn) [Compound 574] | < 6.30 | < 6.30
28 | CCC[C@H](NC(=O)[C@@H]1C[C@]2(CC(c3cccc(Cl)c3)=NO2)CN1C(=O)[C@@H](NC(=O)CC1CCCCC1)C(C)OC)C(=O)C(=O)NC1CC1 (stereo partly drawn) [Compound 124] | < 6.30 | 6.30 to 7.00
29 | CCC[C@H](NC(=O)[C@@H]1C[C@]2(CC(c3cccc(Cl)c3)=NO2)CN1C(=O)[C@@H](NC(=O)CC1CCCCC1)C(C)(C)C)C(=O)C(=O)NCCc1c[nH]c2ccc(OC)cc12 [Compound 302] | 6.30 to 7.00 | 6.30 to 7.00
30 | CCC[C@H](NC(=O)[C@@H]1C[C@]2(CC(c3cc(F)c(OCC)c(Cl)c3)=NO2)CN1C(=O)[C@@H](NC(=O)CC1CCCCC1)C(C)(C)C)C(=O)C(=O)NC1CC1 [Compound 136] | 6.30 to 7.00 | 6.30 to 7.00
31 | CCC[C@H](NC(=O)[C@@H]1C[C@]2(CC(c3cccc(Cl)c3)=NO2)CN1C(=O)[C@@H](NC(=O)CC1CCC2(CC1)OCCO2)C(C)(C)C)C(=O)C(=O)NC1CC1 [Compound 445] | 6.30 to 7.00 | > 7.00
32 | CC(C)(C)[C@H](NC(=O)CC1CCCCC1)C(=O)N1C[C@@]2(CC(c3cncc(Cl)c3)=NO2)C[C@H]1C(=O)NC(CC1CCC1)C(=O)C(=O)NC1CC1 (stereo partly drawn) [Compound 132] | 6.30 to 7.00 | 6.30 to 7.00
33 | C=C[C@@H]1C[C@]1(NC(=O)[C@@H]1C[C@]2(CC(c3cccc(Cl)c3)=NO2)CN1C(=O)[C@@H](NC(=O)CC1CCCCC1)C(C)(C)C)C(=O)NS(=O)(=O)C1CC1 [Compound 162] | 6.30 to 7.00 | > 7.00
34 | CCC[C@H](NC(=O)[C@@H]1C[C@]2(CC(c3cccc(Cl)c3)=NO2)CN1C(=O)[C@@H](NC(=O)CC12CCCCC1C2)C(C)(C)C)C(=O)C(=O)NC1CC1 (stereo partly drawn) [Compound 19] | 6.30 to 7.00 | > 7.00
35 | CCC[C@H](NC(=O)[C@@H]1C[C@]2(CC(c3cccc(Cl)c3)=NO2)CN1C(=O)[C@H](CC(C)C)NC(C)=O)C(=O)C(=O)NC1CC1 [Compound 98] | < 6.30 | 6.30 to 7.00
36 | CCC[C@H](NC(=O)[C@@H]1C[C@]2(CC(c3cccc(Cl)c3)=NO2)CN1C(=O)[C@@H](NC(=O)CC1CCCCC1)C(C)(C)C)C(=O)C(=O)NC1(C(=O)OC)CC1 [Compound 399] | < 6.30 | < 6.30
37 | CCC[C@H](NC(=O)[C@@H]1C[C@]2(CC(c3cccc(Cl)c3)=NO2)CN1C(=O)[C@@H](CC(=O)NCc1ccccc1)C(C)C)C(=O)C(=O)NC1CC1 [Compound 10] | < 6.30 | < 6.30
38 | CCC[C@H](NC(=O)[C@@H]1C[C@]2(CC(c3cccc(Cl)c3)=NO2)CN1C(=O)[C@@H](NC(=O)CC1CCCCC1)C(C)(C)C)C(=O)C(=O)NC [Compound 493] | 6.30 to 7.00 | > 7.00
39 | CCC[C@H](NC(=O)[C@@H]1C[C@]2(CC(c3cc(Cl)c(OC)cc3OC)=NO2)CN1C(=O)[C@@H](NC(=O)CC1CCCCC1)C(C)(C)C)C(=O)C(=O)NC1CC1 [Compound 307] | 6.30 to 7.00 | > 7.00
40 | CCC[C@H](NC(=O)[C@@H]1C[C@@]2(CC(c3cc(C)c(OC)c(Cl)c3)=NO2)CN1C(=O)[C@@H](NC(=O)CC1CCCCC1)C(C)(C)C)C(=O)C(=O)NC1CC1 [Compound 111] | 6.30 to 7.00 | 6.30 to 7.00
41 | CCC[C@H](NC(=O)[C@@H]1C[C@]2(CC(c3cccc4cccnc34)=NO2)CN1C(=O)[C@@H](NC(=O)CC1CCCCC1)C(C)(C)C)C(=O)C(=O)NC1CC1 [Compound 42] | 6.30 to 7.00 | > 7.00
42 | CCC[C@H](NC(=O)[C@@H]1C[C@]2(CC(c3cccc(Cl)c3)=NO2)CN1C(=O)[C@@H](NC(=O)CC1CCCCC1)C(C)(C)C)C(=O)C(=O)N1CCCCC1 [Compound 568] | < 6.30 | < 6.30
